In patent US10208030B2, “GPR119 agonist compounds” (Mankind Pharma Ltd., priority 2016, dated 2019):
Structures can show the parent of a compound that is named as a salt.

Target: T1, hGPR119 (Homo sapiens, UniProt Q8TDV5)
T1 construct: expressed in transfected cells; host or cells: CHO cells (CHO-hGPR119)
T1 sequence (Q8TDV5 1-335): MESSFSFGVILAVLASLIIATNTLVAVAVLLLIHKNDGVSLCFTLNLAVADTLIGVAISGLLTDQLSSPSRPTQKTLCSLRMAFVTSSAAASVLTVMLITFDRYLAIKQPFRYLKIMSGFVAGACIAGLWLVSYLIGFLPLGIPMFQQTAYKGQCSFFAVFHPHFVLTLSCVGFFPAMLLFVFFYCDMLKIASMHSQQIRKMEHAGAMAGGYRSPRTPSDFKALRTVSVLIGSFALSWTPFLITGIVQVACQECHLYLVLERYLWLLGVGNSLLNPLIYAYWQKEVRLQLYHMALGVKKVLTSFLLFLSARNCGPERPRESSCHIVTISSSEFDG
Test: In vitro cyclic AMP assay (Cisbio HTRF) in CHO-hGPR119 cells
Format: cell-based
Conditions: 1 h, cAMP, 1 μM, 60 min, read-out: Induction (% induction at 1 μM)
Description: cAMP measurements were done using Cisbio dynamic 2 HTRF kit according to the manufacturer's protocol. Briefly, CHO-hGPR119 cells were plated at a cell density of 5000 cells/well/5 μl into a white small volume 384 well plate. The final concentrations of IBMX and DMSO used were 1 mM and 0.5% respectively. Cells were treated with various concentrations of the test compound for 60 min at room temperature. Cells were lysed by buffer containing Anti-cAMP antibody and d2-cAMP reagents and incubated for 1 hour at room temperature. HTRF was measured at 337 nm excitation and emission wavelengths of 665 nm and 620 nm on a microplate reader (Flurostar, BMG Labtech). Graphpad prism software was utilized for EC50 determinations.

| SMILES | activation at 1 µM [%] |
| --- | --- |
| CC(Oc1nn2cc(-c3ccc(S(C)(=O)=O)cc3)nc2s1)C1CCN(c2ncc(Cl)cn2)CC1 (centres unmarked) [Compound 1069, 2-(1-(1-(5-chloropyrimidin-2-yl)piperidin-4-yl)ethoxy)-6-(4-(methylsulfonyl)phenyl)imidazo[2,1-b][1,3,4]thiadiazole] | 65 |
| CC(C)c1cnc(N2CCC(C(C)Oc3nn4cc(-c5ccc(S(C)(=O)=O)cc5)nc4s3)CC2)nc1 (centres unmarked) [Compound 1070, 2-(1-(1-(5-isopropylpyrimidin-2-yl)piperidin-4-yl)ethoxy)-6-(4-(methylsulfonyl)phenyl)imidazo[2,1-b][1,3,4]thiadiazole] | 55 |
| CC(Oc1nn2cc(-c3ccc(S(C)(=O)=O)cc3)nc2s1)C1CCN(c2nc(C(F)(F)F)no2)CC1 (centres unmarked) [Compound 1073, 2-(1-(1-(3-(trifluoromethyl)-1,2,4-oxadiazol-5-yl)piperidin-4-yl)ethoxy)-6-(4-(methylsulfonyl)phenyl)imidazo[2,1-b][1,3,4]thiadiazole] | 33 |
| CC(C)c1noc(N2CCC(C(C)Oc3nn4cc(-c5cnc(S(C)(=O)=O)nc5)nc4s3)CC2)n1 (centres unmarked) [Compound 1074, 2-(1-(1-(3-isopropyl-1,2,4-oxadiazol-5-yl)piperidin-4-yl)ethoxy)-6-(2-(methylsulfonyl)pyrimidin-5-yl)imidazo[2,1-b][1,3,4]thiadiazole] | 44 |
| CC(C)c1noc(N2CCC(C(C)Oc3nn4cc(-c5ccc(Cl)nc5)nc4s3)CC2)n1 (centres unmarked) [Compound 1075, 2-(1-(1-(3-isopropyl-1,2,4-oxadiazol-5-yl)piperidin-4-yl)ethoxy)-6-(6-chloropyridin-3-yl)imidazo[2,1-b][1,3,4]thiadiazole] | 64 |
| C[C@@H](Oc1nn2cc(-c3ccc(S(C)(=O)=O)cc3)nc2s1)C1CCN(c2nc(C(F)(F)F)no2)CC1 [Compound 1076, 2-((R)-1-(1-(3-(trifluoromethyl)-1,2,4-oxadiazol-5-yl)piperidin-4-yl)ethoxy)-6-(4-(methylsulfonyl)phenyl)imidazo[2,1-b][1,3,4]thiadiazole] | 15 |
| C[C@H](Oc1nn2cc(-c3ccc(S(C)(=O)=O)cc3)nc2s1)C1CCN(c2nc(C(F)(F)F)no2)CC1 [Compound 1077, 2-((S)-1-(1-(3-(trifluoromethyl)-1,2,4-oxadiazol-5-yl)piperidin-4-yl)ethoxy)-6-(4-(methylsulfonyl)phenyl)imidazo[2,1-b][1,3,4]thiadiazole] | 33 |
| CC(C)c1noc(N2CCC([C@H](C)Oc3nn4cc(-c5ccc(S(C)(=O)=O)c(F)c5)nc4s3)CC2)n1 [Compound 1078, 2-((S)-1-(1-(3-isopropyl-1,2,4-oxadiazol-5-yl)piperidin-4-yl)ethoxy)-6-(3-fluoro-4-(methylsulfonyl)phenyl)imidazo[2,1-b][1,3,4]thiadiazole] | 54 |
| CC(C)c1noc(N2CCC(C(C)Oc3nn4cc(-c5cnc(Cl)cn5)nc4s3)CC2)n1 (centres unmarked) [Compound 1079, 2-(1-(1-(3-isopropyl-1,2,4-oxadiazol-5-yl)piperidin-4-yl)ethoxy)-6-(5-chloropyrazin-2-yl)imidazo[2,1-b][1,3,4]thiadiazole] | 87 |
| CCCc1cnc(N2CCC([C@H](C)Oc3nn4cc(-c5ccncc5F)nc4s3)CC2)nc1 [Compound 1082, 2-((S)-1-(1-(5-propylpyrimidin-2-yl)piperidin-4-yl)ethoxy)-6-(3-fluoropyridin-4-yl)imidazo[2,1-b][1,3,4]thiadiazole] | 80 |
| C[C@H](Oc1nn2cc(-c3ccc(S(C)(=O)=O)cc3)nc2s1)C1CCN(c2ncc(Cl)cn2)CC1 [Compound 1083, 2-((S)-1-(1-(5-chloropyrimidin-2-yl)piperidin-4-yl)ethoxy)-6-(4-(methylsulfonyl)phenyl)imidazo[2,1-b][1,3,4]thiadiazole] | 77 |
| CCCc1cnc(N2CCC([C@H](C)Oc3nn4cc(-c5ccc(S(C)(=O)=O)cc5F)nc4s3)CC2)nc1 [Compound 1085, 2-((S)-1-(1-(5-propylpyrimidin-2-yl)piperidin-4-yl)ethoxy)-6-(2-fluoro-4-(methylsulfonyl)phenyl)imidazo[2,1-b][1,3,4]thiadiazole] | 74 |
| CC(C)c1noc(N2CCC(C(C)Oc3nn4cc(-c5ccncc5C(F)(F)F)nc4s3)CC2)n1 (centres unmarked) [Compound 1092, 2-(1-(1-(3-isopropyl-1,2,4-oxadiazol-5-yl)piperidin-4-yl)ethoxy)-6-(3-(trifluoromethyl)pyridin-4-yl)imidazo[2,1-b][1,3,4]thiadiazole] | 25 |

Next, values leading:

| activation at 1 µM [%] | SMILES |
| --- | --- |
| 75 | CCc1cnc(N2CCC([C@H](C)Oc3nn4cc(-c5ccnc(OC)c5)nc4s3)CC2)nc1 [Compound 1093, 2-((S)-1-(1-(5-ethylpyrimidin-2-yl)piperidin-4-yl)ethoxy)-6-(2-methoxypyridin-4-yl)imidazo[2,1-b][1,3,4]thiadiazole] |
| 68 | CCCc1cnc(N2CCC([C@H](C)Oc3nn4cc(-c5ccnc(OC)c5)nc4s3)CC2)nc1 [Compound 1094, 2-((S)-1-(1-(5-propylpyrimidin-2-yl)piperidin-4-yl)ethoxy)-6-(2-methoxypyridin-4-yl)imidazo[2,1-b][1,3,4]thiadiazole] |
| 8 | COc1cnccc1-c1cn2nc(OC(C)C3CCN(c4nc(C(C)C)no4)CC3)sc2n1 (centres unmarked) [Compound 1095, 2-(1-(1-(3-isopropyl-1,2,4-oxadiazol-5-yl)piperidin-4-yl)ethoxy)-6-(3-methoxypyridin-4-yl)imidazo[2,1-b][1,3,4]thiadiazole] |
| 68 | C[C@H](Oc1nn2cc(-c3ccc(S(C)(=O)=O)cc3F)nc2s1)C1CCN(c2ncc(C(F)(F)F)cn2)CC1 [Compound 1098, 2-((S)-1-(1-(5-(trifluoromethyl)pyrimidin-2-yl)piperidin-4-yl)ethoxy)-6-(2-fluoro-4-(methylsulfonyl)phenyl)imidazo[2,1-b][1,3,4]thiadiazole] |
| 9 | COc1cc(S(C)(=O)=O)ccc1-c1cn2nc(O[C@@H](C)C3CCN(c4nc(C(C)C)no4)CC3)sc2n1 [Compound 1103, 2-((S)-1-(1-(3-isopropyl-1,2,4-oxadiazol-5-yl)piperidin-4-yl)ethoxy)-6-(2-methoxy-4-(methylsulfonyl)phenyl)imidazo[2,1-b][1,3,4]thiadiazole] |
| 46 | Cc1nc(S(C)(=O)=O)ccc1-c1cn2nc(O[C@@H](C)C3CCN(c4nc(C(C)C)no4)CC3)sc2n1 [Compound 1104, 2-((S)-1-(1-(3-isopropyl-1,2,4-oxadiazol-5-yl)piperidin-4-yl)ethoxy)-6-(2-methyl-6-(methylsulfonyl)pyridin-3-yl)imidazo[2,1-b][1,3,4]thiadiazole] |
| 30 | CC(C)c1noc(N2CCC([C@@H](C)Oc3nn4cc(-c5ccc(-c6nnn[nH]6)cc5F)nc4s3)CC2)n1 [Compound 1105, 2-((R)-1-(1-(3-isopropyl-1,2,4-oxadiazol-5-yl)piperidin-4-yl)ethoxy)-6-(2-fluoro-4-(1H-tetrazol-5-yl)phenyl)imidazo[2,1-b][1,3,4]thiadiazole hydrochloride] |
| 67 | CCOC(=O)N1CCC(C(C)Oc2nn3cc(-c4ccc(S(C)(=O)=O)cc4F)nc3s2)CC1 (centres unmarked) [Compound 1107, Ethyl 4-(1-(6-(2-fluoro-4-(methylsulfonyl)phenyl)imidazo[2,1-b][1,3,4]thiadiazol-2-yloxy)ethyl)piperidine-1-carboxylate] |
| 71 | CC(Oc1nn2cc(-c3ccc(S(C)(=O)=O)cc3F)nc2s1)C1CCN(C(=O)OC2(C)CC2)CC1 (centres unmarked) [Compound 1110, 1-methylcyclopropyl 4-(1-(6-(2-fluoro-4-(methylsulfonyl)phenyl)imidazo[2,1-b][1,3,4]thiadiazol-2-yloxy)ethyl)piperidine-1-carboxylate] |
| 63 | CC(C)c1noc(N2CCC(C(C)Oc3nn4cc(-c5cncs5)nc4s3)CC2)n1 (centres unmarked) [Compound 1111, 2-(1-(1-(3-isopropyl-1,2,4-oxadiazol-5-yl)piperidin-4-yl)ethoxy)-6-(thiazol-5-yl)imidazo[2,1-b][1,3,4]thiadiazole] |
| 71 | Cc1cc(S(C)(=O)=O)ccc1-c1cn2nc(O[C@@H](C)C3CCN(c4nc(C(C)C)no4)CC3)sc2n1 [Compound 1112, 2-((S)-1-(1-(3-isopropyl-1,2,4-oxadiazol-5-yl)piperidin-4-yl)ethoxy)-6-(2-methyl-4-(methylsulfonyl)phenyl)imidazo[2,1-b][1,3,4]thiadiazole] |
| 68 | CCOC(=O)N1CCC([C@H](C)Oc2nn3cc(-c4ccc(S(C)(=O)=O)cc4F)nc3s2)CC1 [Compound 1113, ethyl 4-((S)-1-(6-(2-fluoro-4-(methylsulfonyl)phenyl)imidazo[2,1-b][1,3,4]thiadiazol-2-yloxy)ethyl)piperidine-1-carboxylate] |
| 4 | CC(C)c1noc(C2CCN(c3nc(-c4ccc(S(C)(=O)=O)cc4)ns3)CC2)n1 [Compound 1114, 4-(3-isopropyl-1,2,4-oxadiazol-5-yl)-1-(3-(4-(methylsulfonyl)phenyl)-1,2,4-thiadiazol-5-yl)piperidine] |

Same assay, conditions: cAMP, class symbols, legend not given

| EC50 | SMILES |
| --- | --- |
| A+ | CC(Oc1nn2cc(-c3ccc(S(C)(=O)=O)cc3)nc2s1)C1CCN(c2ncc(Cl)cn2)CC1 (centres unmarked) [Compound 1069, 2-(1-(1-(5-chloropyrimidin-2-yl)piperidin-4-yl)ethoxy)-6-(4-(methylsulfonyl)phenyl)imidazo[2,1-b][1,3,4]thiadiazole] |
| A++ | CCCc1cnc(N2CCC([C@H](C)Oc3nn4cc(-c5ccc(S(C)(=O)=O)cc5F)nc4s3)CC2)nc1 [Compound 1085, 2-((S)-1-(1-(5-propylpyrimidin-2-yl)piperidin-4-yl)ethoxy)-6-(2-fluoro-4-(methylsulfonyl)phenyl)imidazo[2,1-b][1,3,4]thiadiazole] |
| A+ | CCOC(=O)N1CCC([C@H](C)Oc2nn3cc(-c4ccc(S(C)(=O)=O)cc4F)nc3s2)CC1 [Compound 1113, ethyl 4-((S)-1-(6-(2-fluoro-4-(methylsulfonyl)phenyl)imidazo[2,1-b][1,3,4]thiadiazol-2-yloxy)ethyl)piperidine-1-carboxylate] |
